Experimental data from patent publication US12385042B2, “Cell-penetrating peptides” (VECTIOPEP OÜ, priority 2019, dated 2025).
Where a SMILES comes first, the peptide text is derived from it. Bridges are numbered along the chain shown (N, C = ends). Roman numbers before positions name the chains, in order. [ ]: non-standard residue; d: D form. The star is where a group is joined. Arachidoyl = CCCCCCCCCCCCCCCCCCCC(=O)*; Stearoyl = CCCCCCCCCCCCCCCCCC(=O)*; Orn = NCCC[C@H](N)C(=O)O

What was measured:
[1] = target: T1, Proteinase K (Parengyodontium album, UniProt P06873); assay: Stability of CPP/siRNA complexes to degradation by Proteinase K; type: physicochemical; details: Proteinase K >14.4 U per well
T1 construct: purchased Thermo Scientific, USA
T1 sequence (P06873 106-384): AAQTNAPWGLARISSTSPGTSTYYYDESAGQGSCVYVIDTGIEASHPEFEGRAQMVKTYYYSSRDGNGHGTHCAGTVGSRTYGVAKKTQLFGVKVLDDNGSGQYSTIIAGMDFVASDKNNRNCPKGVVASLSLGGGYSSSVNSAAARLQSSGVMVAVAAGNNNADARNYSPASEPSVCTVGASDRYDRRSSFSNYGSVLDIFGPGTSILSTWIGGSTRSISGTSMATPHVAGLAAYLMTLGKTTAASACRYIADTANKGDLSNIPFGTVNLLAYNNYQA
Protocol: To assess protection of siRNA from enzymatic degradation, after addition of PG dilution and initial measurement to set a starting point, Proteinase K (Thermo Scientific, USA) was added (>14 U/ml, 20 ul of mixture per well containing dilution of 120 ul of enzyme in 1 ml), co-incubated with complexes and fluorescence was measured over a 10 h period.

[2] = test system: subcutaneous HT-1080 tumor xenograft; assay: Biodistribution of CPP/Cy5-siRNA nanoparticles, HT-1080 tumor; type: in vivo, mouse; details: peak at 3 h
Protocol: Human tumor xenografts (subcutaneous U87MG and HT-1080) were induced in mice (Hsd: Athymic Nude-Foxn1nu female, 2.5 month old, Harlan, UK). The xenografting was performed by implanting the cell suspension (1×10^6 cells in 100 ul volume of ice-cold DMEM without any supplements) subcutaneously to the flank.
At the appearance of tumor size of approx. 100 mm^3, mice were injected i.v. (via tail vein) with the CPP/siRNA complexes. Each animal received a single 200 ul i.v. injection of 20 ug Cy5-siRNA, formulated with CPPs at MR20 or MR40. As a control, 20 μg of un-complexed Cy5-labeled siRNA was administered. The biodistribution of Cy5-siRNA and CPP/Cy5-siRNA complexes was evaluated at different time points −0.5 h up to 6 h. For that, mice (n=2 in each treatment group) were imaged in vivo using IVIS Lumina II (CaliperLS, USA). Cy-5 fluorescence intensity values were acquired from the tumor region.

[3] = test system: U87 cells; assay: MTS toxicity assay; type: cell-based, human
Protocol: Cell proliferation was determined with the CellTiter 96® Aqueous Non-Radioactive Cell Proliferation Assay (MTS) (Promega Biotech AB, Sweden) according to the manufacturer's instructions. For this 1×10^5 U87 cells were seeded 1 day prior to experiment on transparent 96-well plates. On experiment day, media was replaced with 90 ul of fresh media and to the cells complexes formed at MR30 (both with 25 nM and 100 nM final siRNA concentrations) or free peptide at the range of 0.5-4 uM final concentrations were added. Cells were treated with complexes for 20 h. MTS was added according to the manufacturer's protocol. The absorbance of formazan product was measured at 490 nm with Tecan Sunrise microplate absorbance reader (Tecan Group Ltd, Switzerland) and percentage of viable cells was calculated using GraphPad Prism software 5.0 (Graphpad Software, CA, USA).

[4] = Negative staining TEM of CPP/siRNA nanoparticles; type: physicochemical; details: CPP/siRNA complexes at MR30
Protocol: For the morphological analysis the CPP/siRNA complexes were assembled as described above at MR30. For negative staining, copper grids were covered with Formvar film and carbon layer using Leica EM ACE600 carbon coater (Leica Microsystems, Germany). Then, 10 μL of each sample was absorbed to the grids for 2 min and excess of solution was gently removed. Samples were then exposed to 2% aqueous uranyl acetate solution for 1 min. After removing excess stain with filter paper, the samples were allowed to air-dry. The samples were examined at 120 kV accelerating voltage on FEI Tecnai G2 Spirit electron microscope (FEI, The Netherlands).

Row | Compound | stability of complexes to proteinase K (in words) [1] | peak accumulation in HT-1080 tumor relative to naked Cy5-siRNA [2] [fold] | concentration at which free peptide is toxic to cells (MTS) [3] [µM] | length or size of elongated particles, conglomerates or aggregates (TEM) [4] | nanoparticle diameter / size (TEM) [4]
1 | CCCCCCCCCCCCCCCCCC(=O)N[C@@H](Cc1c[nH]cn1)C(=O)N[C@@H](Cc1c[nH]cn1)C(=O)N[C@@H](Cc1ccc(O)cc1)C(=O)N[C@@H](Cc1c[nH]cn1)C(=O)N[C@@H](Cc1c[nH]cn1)C(=O)NCC(=O)NCCC[C@H](N)C(=O)N[C@H](C(=O)N[C@@H](CC(C)C)C(=O)N[C@@H](CC(C)C)C(=O)N[C@@H](CCCCN)C(=O)N[C@@H](C)C(=O)N[C@@H](CC(C)C)C(=O)N[C@@H](CCCCN)C(=O)N[C@@H](C)C(=O)N[C@@H](CC(C)C)C(=O)N[C@@H](C)C(=O)N[C@@H](CCCCN)C(=O)N[C@@H](C)C(=O)N[C@H](C(=O)N[C@@H](CC(C)C)C(N)=O)[C@@H](C)CC)[C@@H](C)CC [NF71] (I: H-[Orn]ILLKALKALAKAIL-NH2 / II: Stearoyl-HHYHHG; amide I:1-II:C) | only slightly more resistant than NF55/siRNA complexes | 37 | ≥ 5 | – | –
2 | CCCCCCCCCCCCCCCCCCCC(=O)N[C@@H](Cc1c[nH]cn1)C(=O)N[C@@H](Cc1c[nH]cn1)C(=O)N[C@@H](Cc1c[nH]cn1)C(=O)N[C@@H](Cc1c[nH]cn1)C(=O)N[C@@H](Cc1ccc(O)cc1)C(=O)N[C@@H](Cc1c[nH]cn1)C(=O)N[C@@H](Cc1c[nH]cn1)C(=O)NCC(=O)NCCC[C@H](N)C(=O)N[C@H](C(=O)N[C@@H](CC(C)C)C(=O)N[C@@H](CC(C)C)C(=O)N[C@@H](CCCCN)C(=O)N[C@@H](C)C(=O)N[C@@H](CC(C)C)C(=O)N[C@@H](CCCCN)C(=O)N[C@@H](C)C(=O)N[C@@H](CC(C)C)C(=O)N[C@@H](C)C(=O)N[C@@H](CCCCN)C(=O)N[C@@H](C)C(=O)N[C@H](C(=O)N[C@@H](CC(C)C)C(N)=O)[C@@H](C)CC)[C@@H](C)CC [NF70] (I: H-[Orn]ILLKALKALAKAIL-NH2 / II: Arachidoyl-HHHHYHHG; amide I:1-II:C) | – | – | – | 40-80 nm | 30-40 nm
